According to patent US8962639B2, “Potassium channel modulators” (AbbVie Inc., priority 2009, dated 2015):

Target: T1, human KCNQ2 and KCNQ3 (Homo sapiens, UniProt O43525+O43526)
T1 construct: expressed in transfected cells; host or cells: HEK293
Test: KCNQ 2/3 channel activation, thallium flux FLIPR assay (BTC-AM dye) in HEK293 cells
Type: cell-based
Conditions: for Emax: HEK293, maximum response relative to response of retigabine at 10 μM set at 100%, read-out: Max response; for EC50: HEK293 cells stably expressing human KCNQ2 and KCNQ3, compound incubated 4 minutes, Tl+ flux fluorescence; for Max response: maximum response relative to response of retigabine at 10 μM set at 100%
Procedure: The following example describes the assay that can be used to identify compounds that activate KCNQ 2/3 channels.
HEK293 cells stably expressing human KCNQ2 and KCNQ3 were seeded in 96-well, black-walled, clear-bottomed, poly-D-lysine coated plates (BD Biosciences, Bedford, Mass.) at a density of 1×10^5 cells per well 24 hours before the assay. On the assay day, BTC-AM dye (Invitrogen, Carlsbad, Calif.) was loaded into the cells by replacing the cell culture medium with 100 μL/well of 4 μM dye in DPBS. Dye loading was allowed to proceed for 2 hours at room temperature and then cells were washed twice in 100 μL/well of assay buffer (in mM: 10 HEPES pH 7.3, 5 glucose, 140 Na-gluconate, 2.5 K-gluconate, 3.6 Ca-gluconate, 2 MgSO4, 0.1 Ouabain) to remove unloaded dye. Cells were incubated in 50 μL of assay buffer before loading onto a FLIPR system (Molecular Devices, Sunnyvale, Calif.). Various concentrations of compounds to be assayed were added to the cells in 50 μL of assay buffer and incubated for 4 minutes. The fluorescence signal was initiated by adding 100 μL of assay buffer containing 6 mM TlNO3 and 10 mM K2SO4. Fluors were excited using the 488-nm line of an argon laser and emission was filtered using a 540±30 nm bandpass filter. Fluorescent signals were recorded for 3 minutes. Responses over baseline values were plotted versus concentrations of test compounds to obtain an EC50 value. The maximum response for each test compound was determined relative to the response produced at 10 μM by retigabine. The maximum response of retigabine at 10 μM was set at 100%.

T1 sequence (O43526 whole entry): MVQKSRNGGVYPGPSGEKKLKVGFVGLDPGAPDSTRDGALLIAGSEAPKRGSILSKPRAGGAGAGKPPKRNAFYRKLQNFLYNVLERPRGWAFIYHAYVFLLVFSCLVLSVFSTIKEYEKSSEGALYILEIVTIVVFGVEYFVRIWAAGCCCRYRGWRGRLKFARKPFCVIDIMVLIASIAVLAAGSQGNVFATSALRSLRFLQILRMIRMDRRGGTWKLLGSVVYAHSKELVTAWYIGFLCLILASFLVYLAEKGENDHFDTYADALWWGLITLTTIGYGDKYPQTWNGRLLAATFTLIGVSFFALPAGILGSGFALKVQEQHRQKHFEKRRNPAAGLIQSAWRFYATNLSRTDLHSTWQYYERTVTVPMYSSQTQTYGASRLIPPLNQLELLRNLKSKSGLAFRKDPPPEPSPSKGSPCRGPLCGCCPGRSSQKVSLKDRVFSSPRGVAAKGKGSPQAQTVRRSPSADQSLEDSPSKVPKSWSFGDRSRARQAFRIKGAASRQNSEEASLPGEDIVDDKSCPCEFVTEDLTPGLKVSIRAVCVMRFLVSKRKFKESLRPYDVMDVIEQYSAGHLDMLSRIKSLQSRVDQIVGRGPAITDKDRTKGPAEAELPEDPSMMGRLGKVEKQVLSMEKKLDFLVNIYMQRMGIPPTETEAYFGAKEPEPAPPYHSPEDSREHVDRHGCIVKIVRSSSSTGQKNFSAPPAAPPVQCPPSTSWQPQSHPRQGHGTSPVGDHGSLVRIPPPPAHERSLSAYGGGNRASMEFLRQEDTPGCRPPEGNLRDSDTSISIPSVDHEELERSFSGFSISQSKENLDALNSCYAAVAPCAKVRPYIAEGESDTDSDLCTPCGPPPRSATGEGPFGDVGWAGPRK
T1 sequence (O43525 whole entry): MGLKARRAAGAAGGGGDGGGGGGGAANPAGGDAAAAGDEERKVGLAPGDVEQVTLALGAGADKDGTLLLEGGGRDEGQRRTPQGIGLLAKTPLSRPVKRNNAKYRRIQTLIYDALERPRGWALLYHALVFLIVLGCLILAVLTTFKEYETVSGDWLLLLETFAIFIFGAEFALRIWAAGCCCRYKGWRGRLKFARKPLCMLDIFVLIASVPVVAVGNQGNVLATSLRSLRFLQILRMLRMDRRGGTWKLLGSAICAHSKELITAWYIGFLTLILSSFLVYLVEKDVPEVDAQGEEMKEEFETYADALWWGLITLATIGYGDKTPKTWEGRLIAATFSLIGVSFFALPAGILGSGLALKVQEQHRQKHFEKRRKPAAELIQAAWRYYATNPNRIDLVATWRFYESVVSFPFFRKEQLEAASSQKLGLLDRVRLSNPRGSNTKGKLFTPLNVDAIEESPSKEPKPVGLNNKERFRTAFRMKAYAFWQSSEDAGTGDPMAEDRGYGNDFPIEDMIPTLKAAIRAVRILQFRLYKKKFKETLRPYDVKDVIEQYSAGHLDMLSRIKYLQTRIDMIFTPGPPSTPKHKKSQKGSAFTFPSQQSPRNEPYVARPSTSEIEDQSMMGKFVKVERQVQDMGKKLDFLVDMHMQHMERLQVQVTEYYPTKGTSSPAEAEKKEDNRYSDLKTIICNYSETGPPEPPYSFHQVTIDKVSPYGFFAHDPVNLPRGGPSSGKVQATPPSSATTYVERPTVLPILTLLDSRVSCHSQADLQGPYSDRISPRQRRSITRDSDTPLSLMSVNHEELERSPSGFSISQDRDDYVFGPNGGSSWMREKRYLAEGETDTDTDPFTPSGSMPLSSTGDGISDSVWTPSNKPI

Row | Emax [%] | EC50 [nM] | Max response [%] | SMILES
1 | 131 | 4950 | – | O=C(CC1CC2CCC1C2)Nn1cnc2ccccc2c1=O (racemic) [Example 10, (±)-exo-2-bicyclo[2.2.1]hept-2-yl-N-(4-oxoquinazolin-3(4H)-yl)acetamide]
2 | – | 90.6 | 175 | CC(C)c1nc2ccccc2c(=O)n1NC(=O)CC1CC2CCC1C2 (racemic) [Example 11, (±)-exo-2-bicyclo[2.2.1]hept-2-yl-N-(2-isopropyl-4-oxoquinazolin-3(4H)-yl)acetamide]
3 | 176 | 535 | – | O=C(CC1CC2CCC1C2)Nn1c(-c2ccccc2)nc2ccccc2c1=O (racemic) [Example 12, (±)-exo-2-bicyclo[2.2.1]hept-2-yl-N-(4-oxo-2-phenylquinazolin-3(4H)-yl)acetamide]
4 | 163 | 747 | – | CC(C)c1nc2ccccc2c(=O)n1NC(=O)CC1CC2C=CC1C2 (racemic) [Example 18, (±)-endo-2-bicyclo[2.2.1]hept-5-en-2-yl-N-(2-isopropyl-4-oxoquinazolin-3(4H)-yl)acetamide]
5 | 130 | 2280 | – | O=C(C[C@@H]1C[C@@H]2C=C[C@H]1C2)Nn1c(-c2ccccc2)nc2ccccc2c1=O (racemic) [Example 19, (±)-endo-2-bicyclo[2.2.1]hept-5-en-2-yl-N-(4-oxo-2-phenylquinazolin-3(4H)-yl)acetamide]
6 | 124 | 404 | – | CC(C)c1nc2ccccc2c(=O)n1NC(=O)[C@@H]1C[C@@H]2CC[C@H]1C2 (racemic) [Example 22, (±)-endo-N-(2-isopropyl-4-oxoquinazolin-3(4H)-yl)bicyclo[2.2.1]heptane-2-carboxamide]
7 | 34.3 | 540 | – | O=C(Nn1c(-c2ccccc2)nc2ccccc2c1=O)C1CC2CCC1C2 (racemic) [Example 23, (±)-endo-N-(4-oxo-2-phenylquinazolin-3(4H)-yl)bicyclo[2.2.1]heptane-2-carboxamide]
8 | 158 | 1130 | – | CCc1nc2sccc2c(=O)n1NC(=O)CC1CC2CCC1C2 (racemic) [Example 24, (±)-exo-2-bicyclo[2.2.1]hept-2-yl-N-(2-ethyl-4-oxothieno[2,3-d]pyrimidin-3(4H)-yl)acetamide]
9 | 140 | 415 | – | CC(C)c1nc2ccccc2c(=O)n1NC(=O)[C@@H]1C[C@@H]2C=C[C@H]1C2 (racemic) [Example 31, (±)-(endo)-N-(2-isopropyl-4-oxoquinazolin-3(4H)-yl)bicyclo[2.2.1]hept-5-ene-2-carboxamide]
10 | 99.2 | 2230 | – | CC(C)c1nc2ccccc2c(=O)n1NC(=O)[C@H]1C[C@@H]2C=C[C@H]1C2 (racemic) [Example 32, (±)-(exo)-N-(2-isopropyl-4-oxoquinazolin-3(4H)-yl)bicyclo[2.2.1]hept-5-ene-2-carboxamide]
11 | 65.4 | 840 | – | O=C(Nn1c(-c2ccccc2)nc2ccccc2c1=O)[C@@H]1C[C@@H]2C=C[C@H]1C2 (racemic) [Example 33, (±)-(endo)-N-(4-oxo-2-phenylquinazolin-3(4H)-yl)bicyclo[2.2.1]hept-5-ene-2-carboxamide]
12 | 4.46 | 17300 | – | O=C(Nn1c(-c2ccccc2)nc2ccccc2c1=O)[C@H]1C[C@@H]2C=C[C@H]1C2 (racemic) [Example 34, (±)-(exo)-N-(4-oxo-2-phenylquinazolin-3(4 H)-yl)bicyclo[2.2.1]hept-5-ene-2-carboxamide]
13 | 17 | > 30000 | – | CC(C)c1nc2cc(-c3ccccc3F)sc2c(=O)n1NC(=O)CC1CC2CCC1C2 (racemic) [Example 41, (±)-2-[(exo)-bicyclo[2.2.1]hept-2-yl]-N-[6-(2-fluorophenyl)-2-isopropyl-4-oxothieno[3,2-d]pyrimidin-3(4H)-yl]acetamide]
14 | – | 86.8 | 150 | CC(C)c1nc2ccccc2c(=O)n1NC(=O)CC1CC2CCC1C2 (racemic) [Example 42, (±)-2-[(endo)-bicyclo[2.2.1]hept-2-yl]-N-(2-isopropyl-4-oxoquinazolin-3(4H)-yl)acetamide]
15 | 150 | 386 | – | CCc1nc2ccccc2c(=O)n1NC(=O)CC1CC2CCC1C2 (racemic) [Example 43, (±)-2-[(endo)-bicyclo[2.2.1]hept-2-yl]-N-(2-ethyl-4-oxoquinazolin-3(4 H)-yl)acetamide]
16 | 145 | 30.7 | – | O=C(C[C@H]1C[C@@H]2CC[C@H]1C2)Nn1c(C2CC2)nc2cc(F)ccc2c1=O (racemic) [Example 61, (±)-2-[(exo)-bicyclo[2.2.1]hept-2-yl]-N-(2-cyclopropyl-7-fluoro-4-oxoquinazolin-3(4H)-yl)acetamide]

Row | Emax [%] | EC50 [nM] | Max response [%] | SMILES
17 | – | 47.7 | 145 | CC(C)c1nc2ccccc2c(=O)n1NC(=O)CC1CC2CCC1C2 (single isomer, unassigned; (+)) [Example 30, (+)-exo-2-[bicyclo[2.2.1]hept-2-yl]-N-(2-isopropyl-4-oxoquinazolin-3(4H)-yl)acetamide]
18 | 136 | 16.7 | – | CC(C)c1nc2ccccc2c(=O)n1NC(=O)CC1CC2CCC1C2 (single isomer, unassigned; (-)) [Example 29, (−)-exo-2-[bicyclo[2.2.1]hept-2-yl]-N-(2-isopropyl-4-oxoquinazolin-3(4H)-yl)acetamide]
19 | 88.8 | 138 | – | CC(C)c1nc2ccccc2c(=O)n1NC(=O)CC1C2CC3CC(C2)CC1C3 (stereo not shown) [Example 1, 2-(2-adamantyl)-N-(2-isopropyl-4-oxoquinazolin-3(4H)-yl)acetamide]
20 | 140 | 198 | – | O=C(Cc1ccc(Cl)cc1)Nn1c(C23CC4CC(CC2C4)C3)nc2ccccc2c1=O [Example 2, 2-(4-chlorophenyl)-N-(2-hexahydro-2,5-methanopentalen-3a(1H)-yl-4-oxoquinazolin-3(4H)-yl)acetamide]
21 | 171 | 277 | – | O=C(CCC1CCCC1)Nn1c(C23CC4CC(CC2C4)C3)nc2ccccc2c1=O [Example 3, 3-cyclopentyl-N-(2-hexahydro-2,5-methanopentalen-3a(1H)-yl-4-oxoquinazolin-3(4H)-yl)propanamide]
22 | 60.4 | 2720 | – | CC(=O)Nn1c(C23CC4CC(CC2C4)C3)nc2ccccc2c1=O [Example 4, N-(2-hexahydro-2,5-methanopentalen-3a(1H)-yl-4-oxoquinazolin-3(4H)-yl)acetamide]
23 | 122 | 148 | – | CC(C)c1nc2ccccc2c(=O)n1NC(=O)CC12CC3CC(CC(C3)C1)C2 [Example 5, 2-(1-adamantyl)-N-(2-isopropyl-4-oxoquinazolin-3(4H)-yl)acetamide]
24 | 103 | 341 | – | O=C(CC12CC3CC(CC(C3)C1)C2)Nn1c(-c2ccccc2)nc2ccccc2c1=O [Example 6, 2-(1-adamantyl)-N-(4-oxo-2-phenylquinazolin-3(4H)-yl)acetamide]
25 | 133 | 116 | – | O=C(CC12CC3CC(CC(C3)C1)C2)Nn1cnc2ccccc2c1=O [Example 7, 2-(1-adamantyl)-N-(4-oxoquinazolin-3(4H)-yl)acetamide]
26 | 108 | 684 | – | Cc1nc2ccccc2c(=O)n1NC(=O)CC12CC3CC(CC(C3)C1)C2 [Example 8, 2-(1-adamantyl)-N-(2-methyl-4-oxoquinazolin-3(4H)-yl)acetamide]
27 | 124 | 115 | – | CCc1nc2ccccc2c(=O)n1NC(=O)CC12CC3CC(CC(C3)C1)C2 [Example 9, 2-(1-adamantyl)-N-(2-ethyl-4-oxoquinazolin-3(4H)-yl)acetamide]
28 | 172 | 399 | – | CC(C)c1nc2ccccc2c(=O)n1NC(=O)CCC12CC3CC(CC(C3)C1)C2 [Example 13, 3-(1-adamantyl)-N-(2-isopropyl-4-oxoquinazolin-3(4H)-yl)propanamide]
29 | 120 | 691 | – | CCc1nc2sccc2c(=O)n1NC(=O)CC12CC3CC(CC(C3)C1)C2 [Example 14, 2-(1-adamantyl)-N-(2-ethyl-4-oxothieno[2,3-d]pyrimidin-3(4H)-yl)acetamide]
30 | 79.7 | 309 | – | O=C(CCC12CC3CC(CC(C3)C1)C2)Nn1c(-c2ccccc2)nc2ccccc2c1=O [Example 15, 3-(1-adamantyl)-N-(4-oxo-2-phenylquinazolin-3(4H)-yl)propanamide]
31 | 32.1 | 261 | – | O=C(CC12CC3CC(CC(C3)C1)C2)Nn1cnc2ccc(Cl)cc2c1=O [Example 16, 2-(1-adamantyl)-N-(6-chloro-4-oxoquinazolin-3(4H)-yl)acetamide]
32 | 61.1 | 2500 | – | Cc1nc2sccc2c(=O)n1NC(=O)CC12CC3CC(CC(C3)C1)C2 [Example 17, 2-(1-adamantyl)-N-(2-methyl-4-oxothieno[2,3-d]pyrimidin-3(4H)-yl)acetamide]
